What was measured:
Uninjected oocytes = test: Direct-current response of uninjected oocytes (control); type: cell-based, Xenopus laevis; conditions: n = 5
Experimental: We first tested receptor-injected oocytes for the occurrence of a response to biogenic amines. Applications of tyramine, octopamine, or dopamine produced an inward ID, typically ranging between 50 nA and 500 nA, under a constant holding potential of −60 mV. […] The amplitude of tyramine evoked ID at concentrations below 10 µM was greater than octopamine or dopamine within the same oocyte (Figs. 2A and S2). […] Instead it would rise and then begin to decline prior to the removal of agonist (dotted line). However, at high concentrations, above 100 µM, ID appeared to approach a stable plateau (Fig. 2B).
(§1) Recordings were performed 1–3 days post-injection at room temperature (20–22°C). Currents were recorded under two-electrode voltage clamp using an Axoclamp 900a amplifier (Molecular Devices LLC, CA USA). A digidata 1440a analog to digital converter was used in conjunction with pCLAMP 10 software (Molecular Devices) for data acquisition and to generate voltage commands. For each step protocol or chemical application data were typically sampled at 5 KHz and filtered digitally at 1 KHz. For the duration of each experiment the current was also continuously sampled at 1 kHz using a separate minidigi 1A digitizer (Molecular Devices). Glass microelectrodes were pulled from filamented 1.2 mm thin wall borosilicate glass (World Precision Instruments, Sarasota, FL) using a Sutter Instruments P-97 puller. They were filled with 3 M KCl and had resistances of 0.8–2.0 MΩ. A silver chloride pellet immersed in 3 M KCl and connected to the bath via a 3% agar bridge made with 3 M KCl was used as the reference electrode.
Supplementary file pone.0111314.s001.tif: Figure S1 Direct-current (ID) responses are specifically evoked by agonists in oocytes injected with OA/TAMac only. […] The trace is representative of an experimental set of 5 oocytes. Additional uninjected oocytes were tested with various experimental sets throughout the course of this study. (B) A typical preliminary test of agonist sensitivity. Injection of OA/TAMac cRNA alone is sufficient to confer sensitivity to OA. […] Applications are approximately 30 seconds in the upper trace. (C) The response of clonidine (CN), synephrine (SN), and OA within a single OA/TAMac injected oocyte. […] All drugs are applied for 30 seconds each as indicated by black rectangles. Agonist evoked currents are measured within oocytes relative to the octopamine response at 50 µM. The comparison is made to OA because the amplitude of the tyramine response becomes small at concentrations above 10 µM. This is due to a mechanistically undefined process not seen with any other agonist we tested. Note that TA is the first compound applied to a naïve oocyte in this example. […] (TIF) Click here for additional data file.

OA/TAMac receptor = OA/TAMac receptor (Macrobrachium rosenbergii, UniProt D9U2B9); test: Agonist-evoked direct-current (ID) in Xenopus oocytes injected with OA/TAMac cRNA, two-electrode voltage clamp; type: cell-based; conditions: for ID response amplitude (mean ± s.d.): 10 µM, 10 second focal application, OA/TAMac and CFTR co-injected, n = 11 oocytes; for EC50: voltage clamped at −60 mV, approximate, estimated graphically from plot, read-out: EC50 of transmitter evoked direct-current (ID), normalized I/Imax; for Spearman rank-order correlation (rS) between rise rate and peak amplitude of evoked ID: all responses of the concentration series of Figure 3C
From the text: We used Xenopus oocytes to express the prawn OA/TAMac receptor by injection of synthetic cRNA. The injection of foreign RNA into Xenopus oocytes typically induces the expression of multiple native chloride and potassium channels. Ligand evoked currents resulting from modulation of these channels have been used extensively in the characterization of heterologously expressed GPCRs. Oocytes are typically voltage clamped at a constant membrane potential around −60 mV and deviations in holding potential are measured. We refer to currents measured in this way as direct-currents (ID) (after) in order to distinguish them from the voltage-evoked transient current (ICl-T) described later.
Both flow rate and pulse duration were precisely controlled and comparisons were made relative to currents within single oocytes.
To characterize the dose dependence of ID, series of single transmitters were applied to different individual oocytes injected with OA/TAMac. Oocytes were voltage clamped at −60 mV and tyramine, (+/−)-octopamine, or dopamine were applied using 30 second perfusion-switched applications (see methods for more details).
as §1
Oocytes were continuously perfused at 1.5 mL/min either with ND 96 or test compounds dissolved in ND 96. Two types of application were used over the course of this study, a perfusion-switch or a focal application. In all cases solutions were delivered through a gravity fed system and switched using a computer controlled bank of pinch valves. Flow rate was regulated with a manual screw-type pinch valve.
For focal application a triple barrel pipette with three parallel independently switched channels was positioned about 1 mm from the surface of the oocyte, up-stream of a cross flow, at an approximate angle of 45 degrees (schematic shown in Fig. S8). Drugs were focally applied during continuous perfusion with ND 96.
In experiments where more than three drugs or concentrations were tested a precisely controlled 30 s perfusion-switch was used. Up to eight channels were connected to the bath via an 8-way manifold. There was an approximately 6–7 s delay for solutions to traverse the dead volume between the manifold and the bath.

[1] = 30 second perfusion-switched applications, −60 mV

Sequence of OA/TAMac receptor (D9U2B9 entry or part of it): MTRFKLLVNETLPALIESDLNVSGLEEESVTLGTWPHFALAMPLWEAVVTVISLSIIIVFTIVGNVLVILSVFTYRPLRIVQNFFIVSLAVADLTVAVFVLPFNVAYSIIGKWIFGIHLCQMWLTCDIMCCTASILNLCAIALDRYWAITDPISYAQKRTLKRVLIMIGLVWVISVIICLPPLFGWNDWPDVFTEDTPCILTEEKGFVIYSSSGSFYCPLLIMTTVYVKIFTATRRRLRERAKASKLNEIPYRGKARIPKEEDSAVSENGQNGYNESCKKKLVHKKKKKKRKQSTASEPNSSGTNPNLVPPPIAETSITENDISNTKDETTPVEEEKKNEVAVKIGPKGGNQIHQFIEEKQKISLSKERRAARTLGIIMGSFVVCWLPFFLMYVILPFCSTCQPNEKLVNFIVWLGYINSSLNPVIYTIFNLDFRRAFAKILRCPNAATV

NCC(O)c1ccc(O)cc1 (racemic) [octopamine, (+/−)-octopamine]
Response of uninjected oocytes (Uninjected oocytes): no response | Response of uninjected oocytes (Uninjected oocytes; listed as OA): do not respond | ID response amplitude (mean ± s.d.) (OA/TAMac receptor; −60 mV): 75±55 nA | Mean ID response amplitude in the agonist set (OA/TAMac receptor; 50 µM, 30 second perfusion-switch, n = 6, standard deviation 32 nA): 119 nA | EC50 (OA/TAMac receptor; 30 second perfusion-switch): ~21 µM | Concentration at which evoked inward currents became visible/apparent (OA/TAMac receptor; [1]): around 1 µM | Spearman rank-order correlation (rS) between rise rate and peak amplitude of evoked ID (OA/TAMac receptor): 0.93

NCCc1ccc(O)cc1 [tyramine]
Response of uninjected oocytes (Uninjected oocytes): no response | Response of uninjected oocytes (Uninjected oocytes; listed as TA): do not respond | ID response amplitude (mean ± s.d.) (OA/TAMac receptor; −60 mV): 229±152 nA | EC50 (OA/TAMac receptor; 30 second perfusion-switch): ~0.2 µM | Concentration at which evoked inward currents became visible/apparent (OA/TAMac receptor; [1]): around 0.1 µM | Concentration at which the response reached maximum amplitude (OA/TAMac receptor; [1]): around 10 µM | Spearman rank-order correlation (rS) between rise rate and peak amplitude of evoked ID (OA/TAMac receptor): 0.52

Reference: PMC4211885 (PLoS ONE, 2014)
